This is an account of results in PubChem BioAssay (NCI).

The structures appear in SMILES notation.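 Protocol summary: plate cells (96-well), add compound at 5 concentrations, incubate 48 h, interpolate endpoints linearly. TGI is the concentration that stops growth completely.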 Some results are limits rather than exact numbers.

Test systems include 786-0 renal; A498 renal; CCRF-CEM leukemia; DU-145 prostate; HCT-15 colon; HOP-62 NSCLC; HOP-92 NSCLC; HS 578T breast; K-562 leukemia; MOLT-4 leukemia; NCI-H226 lung; PC-3 prostate; RXF 393 renal; SF-268 CNS; SF-539 CNS; SK-OV-3 ovarian; T-47D breast; TK-10 renal; UACC-257 melanoma.
Holding throughout (assay): growth of human tumour cells (NCI), 48 h

In the case of `COC(=O)C1=C(C(=O)OC)N(c2ccncc2)C(c2ccco2)=CC1c1ccccc1[N+](=O)[O-]` (stereo not drawn), the TGI in the test on 786-0 renal is 2.94 µM; in the test on A498 renal, 14.1 µM; in the test with CCRF-CEM leukemia, 7.43 µM; with DU-145 prostate it was 18 µM; in the test on HCT-15 colon, 5.58 µM; in the test on HOP-62 NSCLC, more than 46.2 µM. Further, the TGI was 32.4 µM in the test on HOP-92 NSCLC; 27.8 µM with HS 578T breast; more than 100 µM in the test with K-562 leukemia; 6.17 µM with MOLT-4 leukemia; 30.3 µM in the test with NCI-H226 lung; 31 µM with PC-3 prostate. Moreover, the TGI in the test on RXF 393 renal turned out to be 10.6 µM; in the test with SF-268 CNS, 20.8 µM; with SF-539 CNS, 3.6 µM; with SK-OV-3 ovarian, 33.1 µM; with T-47D breast, 12.9 µM; in the test on TK-10 renal, 6.85 µM. The molecule also yielded a TGI in the test on UACC-257 melanoma of 4.25 µM.

With `CC(C)C(=O)/C=C/c1ccc(Cl)cc1Cl`, the TGI with 786-0 renal was found to be 27.2 µM; in the test with A498 renal, 31.8 µM; in the test on CCRF-CEM leukemia, 50.7 µM; with DU-145 prostate, 27.2 µM; in the test with HCT-15 colon, 25.2 µM; in the test with HOP-62 NSCLC, 33.1 µM. The TGI with HOP-92 NSCLC is 30.8 µM; in the test with HS 578T breast, 22.2 µM; in the test on K-562 leukemia, more than 100 µM; with MOLT-4 leukemia, 96.4 µM; in the test on NCI-H226 lung it was 41 µM; in the test on PC-3 prostate, 32.8 µM. Also, the TGI stood at 22.2 µM with RXF 393 renal; 22.5 µM in the test on SF-268 CNS; 34 µM in the test with SF-539 CNS; 33.7 µM in the test on SK-OV-3 ovarian; 25.7 µM with T-47D breast; 27.2 µM in the test on TK-10 renal. In the test with UACC-257 melanoma, this molecule returned a TGI of 26 µM.

In the case of `O=S(=O)(N1CCCCN(S(=O)(=O)C(F)(F)F)CCCN(S(=O)(=O)C(F)(F)F)CCCCN(S(=O)(=O)C(F)(F)F)CCCN(S(=O)(=O)C(F)(F)F)CCCCN(S(=O)(=O)C(F)(F)F)CCCN(S(=O)(=O)C(F)(F)F)CCCCN(S(=O)(=O)C(F)(F)F)CCC1)C(F)(F)F`, the TGI in the test on 786-0 renal is more than 100 µM; in the test with A498 renal, more than 31.6 µM; in the test with CCRF-CEM leukemia it was more than 31.6 µM; in the test on DU-145 prostate, more than 31.6 µM; with HCT-15 colon it was more than 31.6 µM; in the test on HOP-62 NSCLC it was more than 31.6 µM. Moreover, the TGI with HOP-92 NSCLC, with HS 578T breast, in the test with K-562 leukemia, in the test on MOLT-4 leukemia, with NCI-H226 lung and with PC-3 prostate was more than 31.6 µM each time. Further, the TGI in the test on RXF 393 renal, with SF-268 CNS, with SF-539 CNS, in the test on SK-OV-3 ovarian, in the test on T-47D breast and with TK-10 renal was more than 31.6 µM in each case. The TGI in the test with UACC-257 melanoma was more than 31.6 µM.

For the molecule `CCCCCCCCCCCCCCCCCCOC(COP(=O)(O)OCC1OC(n2cc(F)c(=O)[nH]c2=O)CC1O)COP(=O)(O)OCC1OC(n2ccc(N)nc2=O)C(O)C1O` (stereo not drawn), the TGI in the test on 786-0 renal was 28.1 µM; in the test on A498 renal, more than 100 µM; in the test on CCRF-CEM leukemia, more than 81.2 µM; in the test on DU-145 prostate, more than 100 µM; in the test with HCT-15 colon it was more than 100 µM; with HOP-62 NSCLC, more than 100 µM. Moreover, the TGI in the test on HOP-92 NSCLC is more than 94.8 µM; with HS 578T breast, more than 100 µM; in the test on K-562 leukemia, more than 100 µM; with MOLT-4 leukemia, more than 79.8 µM; in the test on NCI-H226 lung it was more than 100 µM; in the test with PC-3 prostate it was 78.8 µM. For the same molecule, the TGI in the test on RXF 393 renal is 49.6 µM; in the test on SF-268 CNS, more than 75 µM; with SF-539 CNS, 31.1 µM; in the test with SK-OV-3 ovarian, more than 100 µM; with T-47D breast, more than 100 µM; with TK-10 renal, more than 100 µM. Besides, the TGI with UACC-257 melanoma is more than 100 µM.

For the molecule `N#CC(C#N)[C@@H]1CCC=C(Sc2ccccc2)[C@H]1Sc1ccccc1`, the TGI worked out at 5.64 µM with 786-0 renal; 26.9 µM in the test on A498 renal; 7.26 µM in the test with CCRF-CEM leukemia; 10.1 µM in the test on DU-145 prostate; 5.66 µM in the test with HCT-15 colon; 15.6 µM in the test on HOP-62 NSCLC. For the same molecule, the TGI in the test on HOP-92 NSCLC is 13.7 µM; in the test on HS 578T breast, 26.6 µM; with K-562 leukemia, more than 100 µM; in the test on MOLT-4 leukemia, more than 23.7 µM; in the test on NCI-H226 lung, 4.01 µM; with PC-3 prostate, 17.4 µM. Also, the TGI in the test with RXF 393 renal amounted to 4.84 µM; in the test on SF-268 CNS, 14.7 µM; in the test with SF-539 CNS it was 4.6 µM; in the test on SK-OV-3 ovarian, 16.3 µM; with T-47D breast, 7.71 µM; with TK-10 renal it was 4.59 µM. The molecule also returned a TGI in the test with UACC-257 melanoma of 6.48 µM.

Take `C#C[C@@H](OC(=O)c1ccc([N+](=O)[O-])cc1)[C@@H]1C[C@H]2O[C@@H]([C@H](C/C=C/CC)OC(=O)c3ccc([N+](=O)[O-])cc3)C[C@H]2O1`: the TGI in the test with 786-0 renal, in the test on A498 renal, with CCRF-CEM leukemia, in the test on DU-145 prostate, with HCT-15 colon and in the test with HOP-62 NSCLC was more than 100 µM in each case. Moreover, the TGI in the test with HOP-92 NSCLC, in the test with HS 578T breast, in the test on K-562 leukemia, in the test on MOLT-4 leukemia, in the test with NCI-H226 lung and in the test with PC-3 prostate was more than 100 µM in each case. For the same molecule, the TGI with RXF 393 renal, in the test on SF-268 CNS, in the test with SF-539 CNS, in the test on SK-OV-3 ovarian, with T-47D breast and with TK-10 renal was more than 100 µM in each case. In addition, the TGI in the test with UACC-257 melanoma was more than 100 µM.

Regarding `COC(OC)[C@@H]1OC[C@H](n2ccc(=O)[nH]c2=O)[C@H]1O`, the TGI in the test on 786-0 renal, in the test on A498 renal, with CCRF-CEM leukemia, in the test with DU-145 prostate, in the test with HCT-15 colon and with HOP-62 NSCLC was more than 100 µM each time. Besides, the TGI in the test with HOP-92 NSCLC, in the test on HS 578T breast, in the test on K-562 leukemia, in the test with MOLT-4 leukemia, in the test on NCI-H226 lung and in the test on PC-3 prostate was more than 100 µM throughout. In addition, the TGI in the test with RXF 393 renal, with SF-268 CNS, in the test on SF-539 CNS, with SK-OV-3 ovarian, in the test on T-47D breast and with TK-10 renal was more than 100 µM in each case. Besides, in the test with UACC-257 melanoma, the TGI was more than 100 µM.
